Measured values from the supplement of paper PMC10307832.

What was measured:
Experiment in all cases: relative viability (nuclei count vs DMSO), 5 days (fraction); higher = more cells survive
Venetoclax + Olaparib = compound: CC1(C)CCC(CN2CCN(c3ccc(C(=O)NS(=O)(=O)c4ccc(NCC5CCOCC5)c([N+](=O)[O-])c4)c(Oc4cnc5[nH]ccc5c4)c3)CC2)=C(c2ccc(Cl)cc2)C1 [Venetoclax] + O=C(c1cc(Cc2n[nH]c(=O)c3ccccc23)ccc1F)N1CCN(C(=O)C2CC2)CC1 [Olaparib] (partner 8 µM)
Summary of the method: (§1)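 Lung cancer cell lines in 1536-well plates got either a single drug or a fixed anchor-drug dose together with five library-drug doses (not always all listed) in √10 steps, by pin tool, on the day after seeding. Nuclei were counted after 5 days, and relative viability is the treated-to-vehicle ratio of nuclei counts. Values are medians of duplicate plates.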

Selumetinib + Linsitinib = compound: Cn1cnc2c(F)c(Nc3ccc(Br)cc3Cl)c(C(=O)NOCCO)cc21 [Selumetinib] + C[C@]1(O)C[C@@H](c2nc(-c3ccc4ccc(-c5ccccc5)nc4c3)c3c(N)nccn32)C1 [Linsitinib] (partner 1 µM)
Summary of the method: as §1

Selumetinib + Bortezomib = compound: Cn1cnc2c(F)c(Nc3ccc(Br)cc3Cl)c(C(=O)NOCCO)cc21 [Selumetinib] + CC(C)C[C@H](NC(=O)[C@H](Cc1ccccc1)NC(=O)c1cnccn1)B(O)O [Bortezomib] (partner 0.002 µM)
Summary of the method: as §1

Venetoclax + Alpelisib = compound: CC1(C)CCC(CN2CCN(c3ccc(C(=O)NS(=O)(=O)c4ccc(NCC5CCOCC5)c([N+](=O)[O-])c4)c(Oc4cnc5[nH]ccc5c4)c3)CC2)=C(c2ccc(Cl)cc2)C1 [Venetoclax] + Cc1nc(NC(=O)N2CCC[C@H]2C(N)=O)sc1-c1ccnc(C(C)(C)C(F)(F)F)c1 [Alpelisib] (partner 2 µM)
Summary of the method: as §1

PC-14
relative viability (Venetoclax + Olaparib; first compound 0.01 µM): 0.256
relative viability (Venetoclax + Olaparib; first compound 0.03162 µM): 0.297
relative viability (Venetoclax + Olaparib; first compound 0.1 µM): 0.245
relative viability (Venetoclax + Olaparib; first compound 0.3162 µM): 0.302
relative viability (Venetoclax + Olaparib; first compound 1 µM): 0.226
relative viability (Selumetinib + Linsitinib; first compound 0.02 µM): 0.935
relative viability (Selumetinib + Linsitinib; first compound 0.06325 µM): 0.87
relative viability (Selumetinib + Linsitinib; first compound 0.2 µM): 0.912
relative viability (Selumetinib + Linsitinib; first compound 0.6325 µM): 0.9
relative viability (Selumetinib + Bortezomib; first compound 0.02 µM): 0.889
relative viability (Selumetinib + Bortezomib; first compound 0.06325 µM): 0.815
relative viability (Selumetinib + Bortezomib; first compound 0.2 µM): 0.926
relative viability (Selumetinib + Bortezomib; first compound 0.6325 µM): 0.766
relative viability (Venetoclax + Alpelisib; first compound 0.01 µM): 0.882
relative viability (Venetoclax + Alpelisib; first compound 0.03162 µM): 0.931
relative viability (Venetoclax + Alpelisib; first compound 0.1 µM): 1.05
relative viability (Venetoclax + Alpelisib; first compound 0.3162 µM): 0.952
relative viability (Venetoclax + Alpelisib; first compound 1 µM): 0.776

NCI-H520
relative viability (Venetoclax + Olaparib; first compound 0.01 µM): 0.388
relative viability (Venetoclax + Olaparib; first compound 0.03162 µM): 0.315
relative viability (Venetoclax + Olaparib; first compound 0.3162 µM): 0.327
relative viability (Venetoclax + Olaparib; first compound 1 µM): 0.387
relative viability (Selumetinib + Linsitinib; first compound 0.02 µM): 1.08
relative viability (Selumetinib + Linsitinib; first compound 0.06325 µM): 0.944
relative viability (Selumetinib + Linsitinib; first compound 0.2 µM): 1.09
relative viability (Selumetinib + Linsitinib; first compound 0.6325 µM): 1.07
relative viability (Selumetinib + Bortezomib; first compound 0.02 µM): 0.635
relative viability (Selumetinib + Bortezomib; first compound 0.06325 µM): 0.47
relative viability (Selumetinib + Bortezomib; first compound 0.2 µM): 0.498
relative viability (Selumetinib + Bortezomib; first compound 0.6325 µM): 0.575
relative viability (Venetoclax + Alpelisib; first compound 0.01 µM): 0.893
relative viability (Venetoclax + Alpelisib; first compound 0.03162 µM): 1.09
relative viability (Venetoclax + Alpelisib; first compound 0.1 µM): 0.865
relative viability (Venetoclax + Alpelisib; first compound 0.3162 µM): 0.796
relative viability (Venetoclax + Alpelisib; first compound 1 µM): 0.847

LXF-289
relative viability (Venetoclax + Olaparib; first compound 0.01 µM): 1.07
relative viability (Venetoclax + Olaparib; first compound 0.03162 µM): 1.09
relative viability (Venetoclax + Olaparib; first compound 0.1 µM): 1.1
relative viability (Venetoclax + Olaparib; first compound 0.3162 µM): 0.993
relative viability (Venetoclax + Olaparib; first compound 1 µM): 0.94
relative viability (Selumetinib + Linsitinib; first compound 0.02 µM): 1
relative viability (Selumetinib + Linsitinib; first compound 0.06325 µM): 0.853
relative viability (Selumetinib + Linsitinib; first compound 0.2 µM): 0.745
relative viability (Selumetinib + Linsitinib; first compound 0.6325 µM): 0.719
relative viability (Selumetinib + Bortezomib; first compound 0.02 µM): 0.934
relative viability (Selumetinib + Bortezomib; first compound 0.06325 µM): 0.891
relative viability (Selumetinib + Bortezomib; first compound 0.2 µM): 0.8
relative viability (Selumetinib + Bortezomib; first compound 0.6325 µM): 0.748
relative viability (Venetoclax + Alpelisib; first compound 0.01 µM): 1.05
relative viability (Venetoclax + Alpelisib; first compound 0.03162 µM): 1
relative viability (Venetoclax + Alpelisib; first compound 0.1 µM): 1.04
relative viability (Venetoclax + Alpelisib; first compound 0.3162 µM): 1.04
relative viability (Venetoclax + Alpelisib; first compound 1 µM): 0.934

NCI-H441
relative viability (Venetoclax + Olaparib; first compound 0.01 µM): 0.627
relative viability (Venetoclax + Olaparib; first compound 0.03162 µM): 0.646
relative viability (Venetoclax + Olaparib; first compound 0.1 µM): 0.568
relative viability (Venetoclax + Olaparib; first compound 0.3162 µM): 0.611
relative viability (Venetoclax + Olaparib; first compound 1 µM): 0.582
relative viability (Selumetinib + Linsitinib; first compound 0.02 µM): 0.543
relative viability (Selumetinib + Linsitinib; first compound 0.06325 µM): 0.46
relative viability (Selumetinib + Linsitinib; first compound 0.2 µM): 0.491
relative viability (Selumetinib + Linsitinib; first compound 0.6325 µM): 0.435
relative viability (Selumetinib + Bortezomib; first compound 0.02 µM): 0.658
relative viability (Selumetinib + Bortezomib; first compound 0.06325 µM): 0.345
relative viability (Selumetinib + Bortezomib; first compound 0.2 µM): 0.544
relative viability (Selumetinib + Bortezomib; first compound 0.6325 µM): 0.506
relative viability (Venetoclax + Alpelisib; first compound 0.01 µM): 0.828
relative viability (Venetoclax + Alpelisib; first compound 0.03162 µM): 0.705
relative viability (Venetoclax + Alpelisib; first compound 0.1 µM): 0.821
relative viability (Venetoclax + Alpelisib; first compound 0.3162 µM): 0.899
relative viability (Venetoclax + Alpelisib; first compound 1 µM): 0.608

NCI-H596
relative viability (Venetoclax + Olaparib; first compound 0.01 µM): 0.764
relative viability (Venetoclax + Olaparib; first compound 0.03162 µM): 0.709
relative viability (Venetoclax + Olaparib; first compound 0.1 µM): 0.711
relative viability (Venetoclax + Olaparib; first compound 0.3162 µM): 0.696
relative viability (Venetoclax + Olaparib; first compound 1 µM): 0.759
relative viability (Selumetinib + Linsitinib; first compound 0.02 µM): 1.07
relative viability (Selumetinib + Linsitinib; first compound 0.06325 µM): 1.02
relative viability (Selumetinib + Linsitinib; first compound 0.2 µM): 1.01
relative viability (Selumetinib + Linsitinib; first compound 0.6325 µM): 0.776
relative viability (Selumetinib + Bortezomib; first compound 0.02 µM): 0.92
relative viability (Selumetinib + Bortezomib; first compound 0.06325 µM): 0.93
relative viability (Selumetinib + Bortezomib; first compound 0.2 µM): 0.835
relative viability (Selumetinib + Bortezomib; first compound 0.6325 µM): 0.621
relative viability (Venetoclax + Alpelisib; first compound 0.01 µM): 0.516
relative viability (Venetoclax + Alpelisib; first compound 0.03162 µM): 0.487
relative viability (Venetoclax + Alpelisib; first compound 0.1 µM): 0.502
relative viability (Venetoclax + Alpelisib; first compound 0.3162 µM): 0.544
relative viability (Venetoclax + Alpelisib; first compound 1 µM): 0.397

NCI-H727
relative viability (Venetoclax + Olaparib; first compound 0.01 µM): 0.758
relative viability (Venetoclax + Olaparib; first compound 0.03162 µM): 0.801
relative viability (Venetoclax + Olaparib; first compound 0.1 µM): 0.803
relative viability (Venetoclax + Olaparib; first compound 0.3162 µM): 0.836
relative viability (Venetoclax + Olaparib; first compound 1 µM): 0.641
relative viability (Selumetinib + Linsitinib; first compound 0.02 µM): 0.17
relative viability (Selumetinib + Linsitinib; first compound 0.06325 µM): 0.207
relative viability (Selumetinib + Linsitinib; first compound 0.2 µM): 0.168
relative viability (Selumetinib + Linsitinib; first compound 0.6325 µM): 0.166
relative viability (Selumetinib + Bortezomib; first compound 0.02 µM): 0.58
relative viability (Selumetinib + Bortezomib; first compound 0.06325 µM): 0.351
relative viability (Selumetinib + Bortezomib; first compound 0.2 µM): 0.359
relative viability (Selumetinib + Bortezomib; first compound 0.6325 µM): 0.337
relative viability (Venetoclax + Alpelisib; first compound 0.01 µM): 0.553
relative viability (Venetoclax + Alpelisib; first compound 0.03162 µM): 0.608
relative viability (Venetoclax + Alpelisib; first compound 0.1 µM): 0.525
relative viability (Venetoclax + Alpelisib; first compound 0.3162 µM): 0.558
relative viability (Venetoclax + Alpelisib; first compound 1 µM): 0.571

NCI-H838
relative viability (Venetoclax + Olaparib; first compound 0.01 µM): 0.784
relative viability (Venetoclax + Olaparib; first compound 0.03162 µM): 0.758
relative viability (Venetoclax + Olaparib; first compound 0.1 µM): 0.824
relative viability (Venetoclax + Olaparib; first compound 0.3162 µM): 0.776
relative viability (Venetoclax + Olaparib; first compound 1 µM): 0.764
relative viability (Selumetinib + Linsitinib; first compound 0.02 µM): 0.883
relative viability (Selumetinib + Linsitinib; first compound 0.06325 µM): 0.848
relative viability (Selumetinib + Linsitinib; first compound 0.2 µM): 0.807
relative viability (Selumetinib + Linsitinib; first compound 0.6325 µM): 0.735
relative viability (Selumetinib + Bortezomib; first compound 0.02 µM): 0.695
relative viability (Selumetinib + Bortezomib; first compound 0.06325 µM): 0.59
relative viability (Selumetinib + Bortezomib; first compound 0.2 µM): 0.679
relative viability (Selumetinib + Bortezomib; first compound 0.6325 µM): 0.513
relative viability (Venetoclax + Alpelisib; first compound 0.01 µM): 1.11
relative viability (Venetoclax + Alpelisib; first compound 0.03162 µM): 0.953
relative viability (Venetoclax + Alpelisib; first compound 0.1 µM): 1.04
relative viability (Venetoclax + Alpelisib; first compound 0.3162 µM): 1.04
relative viability (Venetoclax + Alpelisib; first compound 1 µM): 0.955

NCI-H1792
relative viability (Venetoclax + Olaparib; first compound 0.01 µM): 0.286
relative viability (Venetoclax + Olaparib; first compound 0.03162 µM): 0.463
relative viability (Venetoclax + Olaparib; first compound 0.1 µM): 0.384
relative viability (Venetoclax + Olaparib; first compound 0.3162 µM): 0.561
relative viability (Venetoclax + Olaparib; first compound 1 µM): 0.339
relative viability (Selumetinib + Linsitinib; first compound 0.02 µM): 0.442
relative viability (Selumetinib + Linsitinib; first compound 0.06325 µM): 0.475
relative viability (Selumetinib + Linsitinib; first compound 0.2 µM): 0.361
relative viability (Selumetinib + Linsitinib; first compound 0.6325 µM): 0.251
relative viability (Selumetinib + Bortezomib; first compound 0.02 µM): 0.852
relative viability (Selumetinib + Bortezomib; first compound 0.06325 µM): 0.789
relative viability (Selumetinib + Bortezomib; first compound 0.2 µM): 0.706
relative viability (Selumetinib + Bortezomib; first compound 0.6325 µM): 0.677
relative viability (Venetoclax + Alpelisib; first compound 0.01 µM): 0.674
relative viability (Venetoclax + Alpelisib; first compound 0.03162 µM): 0.669
relative viability (Venetoclax + Alpelisib; first compound 0.1 µM): 0.542
relative viability (Venetoclax + Alpelisib; first compound 0.3162 µM): 0.616
relative viability (Venetoclax + Alpelisib; first compound 1 µM): 0.622

NCI-H1355
relative viability (Venetoclax + Olaparib; first compound 0.01 µM): 0.772
relative viability (Venetoclax + Olaparib; first compound 0.03162 µM): 0.815
relative viability (Venetoclax + Olaparib; first compound 0.1 µM): 0.774
relative viability (Venetoclax + Olaparib; first compound 0.3162 µM): 0.734
relative viability (Venetoclax + Olaparib; first compound 1 µM): 0.757
relative viability (Selumetinib + Linsitinib; first compound 0.02 µM): 0.72
relative viability (Selumetinib + Linsitinib; first compound 0.06325 µM): 0.744
relative viability (Selumetinib + Linsitinib; first compound 0.2 µM): 0.734
relative viability (Selumetinib + Linsitinib; first compound 0.6325 µM): 0.555
relative viability (Selumetinib + Bortezomib; first compound 0.02 µM): 1.18
relative viability (Selumetinib + Bortezomib; first compound 0.06325 µM): 1.17
relative viability (Selumetinib + Bortezomib; first compound 0.2 µM): 0.884
relative viability (Selumetinib + Bortezomib; first compound 0.6325 µM): 0.822
relative viability (Venetoclax + Alpelisib; first compound 0.01 µM): 0.842
relative viability (Venetoclax + Alpelisib; first compound 0.03162 µM): 0.782
relative viability (Venetoclax + Alpelisib; first compound 0.1 µM): 0.784
relative viability (Venetoclax + Alpelisib; first compound 0.3162 µM): 0.785
relative viability (Venetoclax + Alpelisib; first compound 1 µM): 0.805
